Source: patent US8900551B2, “Peptide which passes through blood-brain barrier and targets apoptosis of neurodegenerative brain disease site and uses thereof” (Kyungpook National University Industry-Academic Cooperation …, priority 2009, dated 2014)
Where no end group is shown, it is not given here.

Key:
[1] = system: Parkinson's disease-affected mouse treated with MPTP; assay: Monitoring the therapeutic effect of amantadine in MPTP-induced Parkinson's disease mice; assay type: in vivo
Description: (§1) Parkinson's disease was induced by specifically destroying a dopaminergic neuron existing in substantia nigra of a brain by a drug. For this, to each of C57BL male mice (koatech) (body weight: 21 to 23 g), MPTP (1-methyl-4-phenyl-1,2,3,6-tetrahydro pyridine hydrochloride) (Sigma) was administered with a single dose of 15 mg/kg. MPTP administration was carried out with an interval of 2 hours, four times through intraperitoneal injection, and each mouse was administered with MPTP in a total amount of 60 mg/kg.
(§2) On day 7, 14, and 21 from the administration of MPTP (day 0), the inventive peptide labeled with Cy7.5 was injected. The peptide was intravenously injected into a tail vein to a final concentration of 50 μM, under isoflurane anesthesia, and was circulated for 2 hours. Then, an in vivo near infrared fluorescence image was imaged. The mouse on which the experiment had been completed was immediately subjected to anesthesia and euthanasia. Then, a brain tissue sample was collected. From the dead mouse, blood was immediately removed by saline solution flushing through heart, and primarily fixed by re-flushing of 4% paraformaldehyde solution. The primarily fixed brain was collected from the mouse, and then postfixed by being placed for 1 day in 30% sucrose/phosphate buffer solution, and placed for 1 day in 4% paraformaldehyde phosphate buffer solution. The fixed brain tissues were rapidly frozen by dry ice, and formed into a block for frozen fractions. At some desired time, the stored brain block was prepared as frozen fractions, and used for various staining methods.
Also, in order to monitor the therapeutic effect of a drug, after 30 minutes from the administration of MPTP, amantadine used as a Parkinson's disease therapeutic agent was intraperitoneally administered into each mouse in a dose of 25 mg/kg a total of seven times with a one day interval. On day 7 from the administration of amantadine, the inventive peptide labeled with Cy7.5 was injected, and imaging and tissue staining were carried out in the same manner as described above. Apoptosis was analyzed in the same manner as described in Example <1-1>.

[2] = system: apoptotic cells within Parkinson's disease-affected brain tissues; assay: In vivo near infrared imaging of MPTP-induced Parkinson's disease mice with Cy7.5-labeled peptide; design: species or system mouse; details: for near infrared fluorescence at the brain region: Cy7.5-labeled, intravenous, 2 hours
Description: as §1, §2

[3] = system: apoptotic cells within Alzheimer's disease-affected brain tissues; assay: In vivo near infrared imaging of Alzheimer's disease model mice with Cy7.5-labeled peptide; design: species or system mouse; details: intravenous
Text: (§3) As an Alzheimer's disease model, a transgenic mouse model over-expressing Amyloid precursor protein (APP) gene and Presenilin 1 (PS1) gene was used. The model animal has a characteristic that apoptosis together with extracellular accumulation of beta amyloid protein (one of the characteristics of Alzheimer's disease) gradually increases according to an increase of age. On mice, from a 5 month old mouse (early stage of alzheimer's disease) to a 13 month old mouse (severe stage), this experiment was performed according to the progression of disease. The apoptosis was confirmed by TUNEL (in vitro terminal deoxynucleotidyl transferase-mediated dUTP nick-end labeling) assay according to the manufacturer (Roche)'s instructions. In this method, biotin-dUTP is labeled at the end of a cleaved DNA fragment specifically occurring in apoptosis by using terminal deoxynucleotidyl transferase enzyme, and then fluorescence staining is performed by streptavidin-rhodamine (red fluorescent dye).
The Alzheimer's disease-affected mouse (5, 7, 9, and […]) models were intravenously injected with the inventive peptide (ApoPep-1) labeled with Cy7.5 near infrared fluorescence, under isoflurane anesthesia, to a final concentration of 50 μM. After 2 hours from the injection, a head region was imaged by near infrared imaging, and each brain was isolated and imaged by near infrared imaging. An in vivo near infrared fluorescence image was imaged by an Optix exPlore machine (ART). Also, by using the machine's own software, each image was standardized.
The peptide used in the present invention was synthesized by a standard Fmoc method, and separated by HPLC machine. The synthesis of the peptide was carried out by special companies (Peptron and Anygen). The peptide was synthesized in such a manner that N-terminal was combined with fluorescein isothiacyanate (FITC). Otherwise, after the synthesis of the peptide, N-terminal was combined with Cy7.5 near infrared fluorescent dye.

[4] = system: apoptotic cells within Parkinson's disease-affected brain tissues; assay: Immunofluorescence / TUNEL staining of Parkinson's disease-affected brain tissues injected with FITC-labeled peptide; assay type: in vivo, mouse
Text: as §3, with “The apoptosis was confirmed by TUNEL (in vitro terminal deoxynucleotidyl transferase-mediated dUTP nick-end labeling) assay according to the manufacturer (Roche)'s instructions.” left out
[…] Then, an in vivo near infrared fluorescence image was imaged. […]
Also, in order to monitor the therapeutic effect of a drug, after 30 minutes from the administration of MPTP, amantadine used as a Parkinson's disease therapeutic agent was intraperitoneally administered into each mouse in a dose of 25 mg/kg a total of seven times with a one day interval. […] Apoptosis was analyzed in the same manner as described in Example <1-1>.

[5] = system: apoptotic cells within Alzheimer's disease-affected brain tissues; assay: Immunofluorescence staining analysis of Alzheimer's disease-affected brain tissues injected with FITC-labeled peptide; assay type: in vivo; details: frozen brain sections, Alzheimer's disease-affected mouse 13 months old
Description: For histological examination, the brain tissues isolated from the mouse (13 months old) injected with the inventive peptide labeled with FITC fluorescence (green), which had been subjected to in vivo imaging in Example <1-1>, were postfixed by 4% paraformaldehyde liquid, and immersed in Sucrose/phosphate buffer for 24 hours. Then, they were prepared as frozen sections with a thickness of 30 μm by cryostat. Immunofluorescence staining on an antibody was carried out by using a secondary antibody labeled with alexa 568 (red fluorescent dye). Each tissue slide was observed by a fluorescence microscope (Zeiss).

[6] = amantadine following MPTP vs MPTP alone, brain tissues
[7] = Parkinson's disease-affected mouse (MPTP), 50 μM final

Row | Molecule | near infrared fluorescence of Cy7.5-labeled inventive peptide at brain region ([1]; amantadine 25 mg/kg intraperitoneal, seven times at one day interval following MPTP, vs mouse administered with MPTP) | number of TUNEL-stained apoptotic cells ([1]; amantadine following MPTP vs MPTP alone) | TUNEL staining (apoptosis biomarker) [1, 6] | antibody staining of tyrosine hydroxylase (TH) (dopaminergic neuron-specific marker) [1, 6] | number of TH-stained dopaminergic neurons ([1]; amantadine following MPTP vs MPTP alone, p<0.01) | near infrared fluorescence at the brain region [2, 7] | near infrared fluorescence at brain region ([3]; mouse (8 months old), Cy7.5-labeled, 2 hours after injection) | co-location of peptide (green) with TUNEL staining (apoptosis biomarker) ([4]; brain tissues of MPTP mice and mice administered with amantadine following MPTP (FIG. 7c)) | co-location of peptide (green) with TUNEL staining (apoptosis biomarker) ([4]; brain tissues of Parkinson's disease-affected mouse treated with MPTP, FITC-labeled peptide) | near infrared fluorescence at a brain region with the lapse of time ([2]; after 1 week, 2 weeks and 3 weeks from administration of MPTP) | near infrared fluorescence at the brain region ([2]; normal (wild type) mouse) | co-staining of peptide (green) with antibody to Caspase-3 (apoptosis biomarker) [5] | distribution of peptide relative to brain blood vessel (α-SMA antibody staining); passing through blood-brain barrier [5] | near infrared fluorescence intensity level at head region according to disease progression ([3]; APP/PS1 Alzheimer's disease-affected mice 5, 7, 9, 13 months old, Cy7.5-labeled, 50 μM final, 2 hours after injection) | near infrared fluorescence at the brain region, Alzheimer's disease-affected mouse versus normal mouse ([3]; Alzheimer's disease-affected mouse (7 and 9 months old) vs normal (wild type) mouse (8 months old), 2 hours)
1 | NC12CC3CC(CC(C3)C1)C2 [amantadine] | lower near infrared fluorescence than the mouse administered with MPTP | reduction of apoptosis in neurons | decrease of TUNEL staining | increase of antibody staining of tyrosine hydroxylase | statistically significantly increased |  |  |  |  |  |  |  |  |  | 
2 | control peptide: control peptide (amino acid sequence, NSSSVDK) [reference compound] |  |  |  |  |  | hardly observed | hardly observed |  |  |  |  |  |  |  | 
3 | inventive peptide: peptide targeting apoptotic cells, amino acid sequence CQRPPR (SEQ ID NO: 1), named ApoPep-1; N-terminal labeled with FITC or Cy7.5 (also: N-terminal FITC or Cy7.5 label) |  |  |  |  |  | strong near infrared fluorescence was observed |  | located at the same cell | concurrently located at the same cell | became stronger | hardly observed | concurrently stained at the same cell | distributed within brain parenchyma outside of a brain blood vessel | near infrared fluorescence intensity level increased | much stronger near infrared fluorescence at the brain region than the normal mouse
